In PubChem BioAssay AID179 (DTP/NCI, 2004):
The source made the active and inactive calls.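 How the source made its calls: active means compounds giving half or more protection of infected cells from virus-caused growth loss, again on retest; inactive means the rest.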

Tested on: CEM cells HIV-1 protection, formazan growth assay
Assay: NCI AIDS Antiviral Assay
Conditions: for IC50: measured here: growth of uninfected CEM cells
How it was run: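 Human CEM cells, uninfected and HIV-1-infected, exposed to five drug concentrations; growth measured by soluble formazan assay and scored as percent protection from infection, with protecting compounds retested.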

SMILES	EC50 [µM]	IC50 [µM]	outcome
Fc1cccc(F)c1C1SCc2nc3ccc(Cl)cc3n21 (stereo not drawn)	4.07	> 200	
C=CC[C@@]12CC(C=CC13OCCO3)OC(=O)[C@@H]2C	> 200	> 200	
Nc1nc(Cl)cc(NCCCCCCCCCCNc2cc(Cl)nc(N)n2)n1			inactive
CCOC(=O)c1cc2sc(NC(=O)c3ccco3)nc2o1	182	> 200	
CCN(CC)CC(C)(C)C(=O)/C=C/c1ccc(Cl)cc1	> 200	7.24	
N#CC1=C2Oc3ccccc3N2C(c2ccccc2)C(C#N)=C1N (stereo not drawn)	> 200	> 200	
c1ccc(SC2=C(Sc3ccccc3)CC2)cc1	> 200	89.1	
COc1cc2c(c(OC)c1OC)-c1ccc(OC)c(=O)cc1C(NC(=O)c1ccc(N=[N+]=[N-])cc1)CC2 (stereo not drawn)	> 200	5.89	
O=c1c2ccccc2sc2ccccc12	> 200	> 200	
CNS(=O)(=O)NN(C)S(=O)(=O)c1ccc2ccccc2c1	> 759	110	
Cc1ccc2nc(Sc3c([N+](=O)[O-])ncn3C)[nH]c2c1	> 5.01	4.79	
CCOC(=O)c1cc(-c2cc(OC)c(OC)c([N+](=O)[O-])c2)c([N+](=O)[O-])n1C	> 200	10.2	
